The text below walks through data of patent publication US20230201285A1, “GRANULAR C[…] WATER DISPERSIBLE CANNABINOIDS AND METHODS OF MAKING THE SAME” (priority 2021, published 2023).

A short description of this data set: Emulsion formation of CBD powder in water with emulsifier or co-solvent. The format is physicochemical. As to conditions: 200 mg CBD powder, 40 mL water, shaken five minutes. Here is the method: A study was conducted with several different emulsifiers or co-solvents added to water and CBD powder.
In a first experiment, five 50 mL centrifuge tubes were each filled with 40 mL of water and 200 mg of CBD powder. Then, increasing amounts of PEG-400 (65 mg, 130 mg, 195 mg, 260 mg, and 650 mg) were added respectively to each centrifuge tube, which were then placed on a tabletop shaker and mechanically shaken on high for five minutes. […] No emulsion, however, was immediately formed after mixing.
In a second experiment, four 50 mL centrifuge tubes were each filled with 40 mL of water and 200 mg of CBD powder. Then, increasing amounts of TWEEN 80 (160 mg, 320 mg, 800 mg, and 1600 mg) were added respectively to each centrifuge tube, which were then placed on a tabletop shaker and mechanically shaken on high for five minutes. […] Further, CBD powder was still floating around in each tube.
In a third experiment, four 50 mL centrifuge tubes were each filled with 40 mL of water and 200 mg of CBD powder. Then, increasing amounts of sodium dodecyl sulfate (SDS) (10 mg, 25 mg, 50 mg, and 100 mg) were added respectively to each centrifuge tube, which were then placed on a tabletop shaker and mechanically shaken on high for five minutes. […] Further, CBD residue was observed on the bottom of each tube.
Finally, in a fourth experiment, four 50 mL centrifuge tubes were each filled with 40 mL of water and 200 mg of CBD powder. Then, increasing amounts of glycerol monostearate (GMS) (10 mg, 25 mg, 50 mg, and 100 mg) were added respectively to each centrifuge tube, which were then placed on a tabletop shaker and mechanically shaken on high for five minutes. […] Further, CBD residue was observed on the bottom and sides of each tube.

With `C=C(C)[C@@H]1CCC(C)=C[C@H]1c1c(O)cc(CCCCC)cc1O` [CBD powder, cannabidiol], the emulsion formation result runs as follows: (GMS 10-100 mg) “no emulsion was formed in any tube”; (PEG-400 65-650 mg) “No emulsion”; (SDS 10-100 mg) “no emulsion was formed in any tube”; (TWEEN 80 160-1600 mg) “no emulsion was formed in any tube”.
